In patent US11724981B2, “Cationic surfactants comprising an ether link” (Battelle Memorial Institute, priority 2018, dated 2023):

Experiment: Aquatic toxicity according to Method 2007
Conditions: in vivo, Mysidopsis Bahia
Source text: (References: OECD Guideline for the Testing of Chemicals: BG1Luc Estrogen Receptor Transactivation Test Method for Identifying Estrogen Receptor Agonists and Antagonists, OECD Guidelines for the Testing of Chemicals, Section 4, OECD Publishing, Paris, https://doi.org/10.1787/9789264185395-en, and http://ntp.niehs.nih.gov/ntp/about_ntp/sacatm/2012/september/d_draft_oecdtg457bg1luc_508.pdf; and G. Bittner, M. Denison, C. Yang, M. Stoner and G. He, Environmental Health 2014, 13 103). They were also tested for aquatic toxicity according to Method 2007 using Mysidopsis Bahia.

CCCCCCCCCCCCCCCC[N+](C)(C)C [CTAB, cetyl trimethyl ammonium bromide]
LC50 at 96 h: 0.2 µg/mL
